Assays:
Assay type in all cases: cell-based
MCF-7 (breast carcinoma) = assay: MTT proliferation assay, MCF-7 cells; details: Homo sapiens, MCF7, 72 hours incubation, read-out: IC50 (concentration that causes 50% growth inhibition), MCF-7
Protocol: (§1) The described assay was used to test the effects of compounds on the proliferation of various human tumor cell lines, whereby cytostatic and cytotoxic effects on cells can be differentiated. The experiments were carried out on human cell lines, which were derived from 6 tumor types. The following cell lines were used: MCF-7 (breast carcinoma), SW 620 (colon carcinoma), HCT 116 (colon carcinoma), MOLT-4 (acute lymphoblastic leukemia), H 460 (lung carcinoma), HeLa (cervical carcinoma), MiaPaCa-2 (pancreatic carcinoma).
(§2) MCF-7, SW 620, HCT 116, HeLa, MiaPaCa-2 and H 460 cell lines were cultured as monolayers and maintained in Dulbecco's modified Eagle medium (DMEM), while MOLT-4 cells were cultured in suspension in nutritive medium RPMI 1640, both supplemented with 10% fetal bovine serum (FBS), 2 mM L-glutamine, 100 U/ml penicillin and 100 μg/ml streptomycin in a humidified atmosphere with 5% CO2 at 37° C.
(§3) The panel cell lines were inoculated onto a series of standard 96-well microtiter plates on day 0, at 1×10^4 to 3×10^4 cells/ml, depending on the doubling times of the specific cell line. Test agents were added next day to the cell lines in five consecutive 10-fold dilutions (10^−8 to 10^−4 M) and incubated for a further 72 hours. Working dilutions were freshly prepared on the day of testing. The solvent (DMSO) was also tested for eventual inhibitory activity by adjusting its concentration to be the same as in working concentrations. After 72 hours of incubation the cell growth rate was evaluated by performing the MTT assay (Mossman, Methods Immunol, 1983, 65, 55-63.), which detects dehydrogenase activity in viable cells. The MTT Cell Proliferation Assay is a colorimetric assay system, which measures the reduction of a tetrazolium component (MTT) into an insoluble formazan produced by mitochondria of viable cells. For this purpose the substance treated medium was discarded and MTT was added to each well in concentration of 20 μg/40 μl. After four hours of incubation the precipitates were dissolved in 160 μl of dimethylsulphoxide (DMSO). The absorbance (OD, optical density) was measured on a microplate reader at 570 nm. The absorbance is directly proportional to the cell viability. The percentage of growth (PG) of the cell lines was calculated according to one of the following two equations (according to the National Cancer Institute protocols, www.dtp.nci.nih.gov): If (mean ODtest−mean ODtzero)≧0 then PG=100×(mean ODtest−mean ODtzero)/(mean ODctrl−mean ODtzero). If (mean ODtest−mean ODtzero)<0 then: PG=100×(mean ODtest−mean ODtzero)/ODtzero.
(§4) Mean ODtzero=the average of optical density measurements before exposure of cells to the test compound.
(§5) Mean ODtest=the average of optical density measurements after the desired period of time.
(§6) Mean ODctrl=the average of optical density measurements after the desired period of time with no exposure of cells to the test compound.
(§7) Each test point was performed in quadruplicate in three individual experiments. The results were expressed as IC50, a concentration necessary for 50% of proliferation inhibition. Each result is a mean value from three separate experiments. The IC50 measures the growth inhibitory power of the test agent and represents the concentration that causes 50% growth inhibition. The IC50 is calculated from dose-response curves using linear regression analysis by fitting the test concentrations that give PG values above and below the respective reference value (e.g. 50% of inhibition for IC50). Therefore, a “real” value for any of the response parameters is obtained only if at least one of the tested drug concentrations falls above, and likewise at least one falls below the respective reference value. If however, for a given cell line or test agent all of the tested concentrations produce PGs exceeding the respective reference level of effect (e.g. PG value of 50%), then the highest tested concentration is assigned as the default value. […]

H 460 (lung carcinoma) = assay: MTT proliferation assay, H 460 cells; details: Homo sapiens, NCI-H460, 72 hours incubation, read-out: IC50 (concentration that causes 50% growth inhibition), H 460
Protocol: as §1, §2, §3, §4, §5, §6, §7

[1] = system: MiaPaCa-2 (pancreatic carcinoma); assay: MTT proliferation assay, MiaPaCa-2 cells; details: Homo sapiens, MIA PaCa-2, 72 hours incubation, read-out: IC50 (concentration that causes 50% growth inhibition), MiaPaCa-2
Protocol: as §1, §2, §3, §4, §5, §6, §7

SW 620 (colon carcinoma) = assay: MTT proliferation assay, SW 620 cells; details: Homo sapiens, 72 hours incubation, read-out: IC50 (concentration that causes 50% growth inhibition), SW 620
Protocol: as §1, §2, §3, §4, §5, §6, §7

[2] = system: HeLa (cervical carcinoma); assay: MTT proliferation assay, HeLa cells; details: Homo sapiens, 72 hours incubation, read-out: IC50 (concentration that causes 50% growth inhibition), Hela
Protocol: as §1, §2, §3, §4, §5, §6, §7

[3] = system: MOLT-4 (acute lymphoblastic leukemia); assay: MTT proliferation assay, MOLT-4 cells; details: Homo sapiens, 72 hours incubation, read-out: IC50 (concentration that causes 50% growth inhibition), MOLT-4
Protocol: as §1, §2, §3, §4
(§8) Mean ODtest=the average of optical density measurements after the desired period of time. […]

[4] = system: HCT 116 (colon carcinoma); assay: MTT proliferation assay, HCT 116 cells; details: Homo sapiens, 72 hours incubation, read-out: IC50 (concentration that causes 50% growth inhibition), HCT 116
Protocol: as §1, §2, §3, §4, §8

[5] = system: various human tumor cell lines; assay: MTT proliferation assay, panel of tumor cell lines; details: up to maximal tested concentration (c=100 μM) during 72 hours, all cell lines of Table 1
Protocol: as §1, with “carcinoma). […]” for “carcinoma).”
The panel cell lines were inoculated onto a series of standard 96-well microtiter plates on day 0, at 1×10^4 to 3×10^4 cells/ml, depending on the doubling times of the specific cell line. […] After 72 hours of incubation the cell growth rate was evaluated by performing the MTT assay (Mossman, Methods Immunol, 1983, 65, 55-63.), which detects dehydrogenase activity in viable cells. […] The absorbance (OD, optical density) was measured on a microplate reader at 570 nm. The absorbance is directly proportional to the cell viability. The percentage of growth (PG) of the cell lines was calculated according to one of the following two equations (according to the National Cancer Institute protocols, www.dtp.nci.nih.gov): If (mean ODtest−mean ODtzero)≧0 then PG=100×(mean ODtest−mean ODtzero)/(mean ODctrl−mean ODtzero). […]

Compound	IC50 (MCF-7 (breast carcinoma)) [µM]	IC50 (H 460 (lung carcinoma)) [µM]	IC50 [1] [µM]	IC50 (SW 620 (colon carcinoma)) [µM]	IC50 [2] [µM]	IC50 [3] [µM]	IC50 [4] [µM]	antiproliferative activity [5]
C1COCCOCCN(CCC23CC4CC(CC(C4)C2)C3)CCOCCOCCO1 [Compound 1, N-[2-(1-adamantyl)ethyl]-aza-18-crown-6]	8 ± 4	15 ± 0.6	12 ± 0.6	9 ± 6	16 ± 0.5			
O=C(CC12CC3CC(CC(C3)C1)C2)N1CCOCCOCCOCCOCCOCC1 [Compound 3, N-[1-oxo-2-(1-adamantyl)ethyl]-aza-18-crown-6]	> 100	> 100	> 100	> 100	> 100			
O=C(CCC12CC3CC(CC(C3)C1)C2)N1CCOCCOCCOCCOCCOCC1 [Compound 4, N-[1-oxo-3-(1-adamantyl)propyl]-aza-18-crown-6]	17 ± 5	72 ± 7	30 ± 3.4	13 ± 2	28 ± 7			
C1COCCOCCNCCOCCOCCN1 [Diaza-18-crown-6, diaza-18-crown-6, reference compound]	> 100	> 100	> 100	> 100	> 100	> 100	> 100	did not show any antiproliferative activity

The next compounds have a lower IC50 (MCF-7 (breast carcinoma)) than those just listed; values first:

IC50 (MCF-7 (breast carcinoma)) [µM]	IC50 (H 460 (lung carcinoma)) [µM]	IC50 [1] [µM]	IC50 (SW 620 (colon carcinoma)) [µM]	IC50 [2] [µM]	IC50 [3] [µM]	IC50 [4] [µM]	Compound	antiproliferative activity [5]
6 ± 5	15 ± 0.1	11 ± 2	9 ± 3	14 ± 3			C(CN1CCOCCOCCOCCOCCOCC1)CC12CC3CC(CC(C3)C1)C2 [Compound 2, N-[3-(1-adamantyl)propyl]-aza-18-crown-6]	
4 ± 0.7	4 ± 3	1.7 ± 0.6	2.6 ± 1.9	2.3 ± 1.4			C1COCCN(CCC23CC4CC(CC(C4)C2)C3)CCOCCOCCN(CCC23CC4CC(CC(C4)C2)C3)CCO1 [Compound 5, N,N′-Bis[2-(1-adamantyl)ethyl]-4,13-diaza-18-crown-6]	
1 ± 0.4	0.2 ± 0.3		1 ± 0.4		1 ± 1	0.4 ± 0.4	C(CN1CCOCCOCCN(CCCC23CC4CC(CC(C4)C2)C3)CCOCCOCC1)CC12CC3CC(CC(C3)C1)C2 [Compound 6, N,N″-Bis[3-(1-adamantyl)propyl]-4,13-diaza-18-crown-6]	
5 ± 2	14 ± 1		12 ± 5		6 ± 6	6	O=C(CC12CC3CC(CC(C3)C1)C2)N1CCOCCOCCN(C(=O)CC23CC4CC(CC(C4)C2)C3)CCOCCOCC1 [Compound 7, N,N′-Bis[1-oxo-2-(1-adamantyl)ethyl]-4,13-diaza-18-crown-6]	
2 ± 0.4	11 ± 5		19 ± 16		3 ± 0.5	6 ± 4	O=C(CCC12CC3CC(CC(C3)C1)C2)N1CCOCCOCCN(C(=O)CCC23CC4CC(CC(C4)C2)C3)CCOCCOCC1 [Compound 8, N,N′-Bis[1-oxo-3-(1-adamantyl)propyl]-4,13-diaza-18-crown-6]	

Reference: US8389505B2, “Adamantane derivatives of AZA-crown ethers and their use in treatment of tumor” (Rudjer Boskovic Institute, priority 2009, dated 2013)
